{"source": "patent US20070179154A1", "about": "“Coumarin derivatives, process for their production and use thereof” (Takeda Pharmaceutical Company Limited, priority 2002, published 2007)", "key": {"[1]": {"molecular_target": "T1, mouse abdominal macrophage microsome ACAT (Mus musculus, UniProt Q61263)", "T1 construct": "from tissue; host or cells: microsomes of thioglycolate-elicited peritoneal (abdominal) macrophages of C57BL6J mice, cultured 24 h with rabbit beta-VLDL", "T1 sequence (Q61263 1-540)": "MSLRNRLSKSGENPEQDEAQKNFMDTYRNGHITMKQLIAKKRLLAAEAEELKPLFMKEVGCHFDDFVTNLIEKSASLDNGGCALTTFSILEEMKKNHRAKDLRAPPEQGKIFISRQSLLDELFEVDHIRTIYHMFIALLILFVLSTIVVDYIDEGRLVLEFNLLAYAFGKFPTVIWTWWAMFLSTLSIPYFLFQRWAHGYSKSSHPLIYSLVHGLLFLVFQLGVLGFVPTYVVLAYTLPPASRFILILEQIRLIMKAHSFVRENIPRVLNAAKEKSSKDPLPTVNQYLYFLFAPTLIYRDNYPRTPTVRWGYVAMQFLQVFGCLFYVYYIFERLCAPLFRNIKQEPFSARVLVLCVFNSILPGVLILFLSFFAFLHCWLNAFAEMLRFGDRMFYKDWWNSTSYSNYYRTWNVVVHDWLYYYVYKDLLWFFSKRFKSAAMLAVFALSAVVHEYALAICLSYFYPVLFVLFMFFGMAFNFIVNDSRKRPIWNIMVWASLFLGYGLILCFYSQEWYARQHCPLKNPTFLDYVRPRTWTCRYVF", "test": "ACAT inhibitory activity (mouse abdominal macrophage microsome ACAT)", "type": "biochemical", "details": "microsome ACAT from thioglycolate-stimulated C57BL6J mouse abdominal macrophage; 3H-oleyl-CoA, 37° C. for 20 minutes; read-out: Enzyme inhibition (IC50)", "procedure": "[Preparation of Mouse Abdominal Macrophage Microsome ACAT]\nAccording to the method of Hakamada et al. (Experimental Medicine Suppliment vol. 14, No. 12, Circulation Research Protocol, p, 49-52, 1996), an abdominal macrophage was taken from a thioglycolate-stimulated C57BL6J mouse and cultured for 24 hours in a RPMI 1640-25 mM HEPES (pH7.0) medium containing rabbit β-very low density lipoprotein (β-VLDL, 150 μg cholesterol/ml) which had been prepared by the method of Ishii et al. (Ishii I et al., Arterioscler, Thromb, 12, 1139-1145, 1992). The abdominal macrophage was then collected by centrifugation (4° C., 1.000 rpm, 5 minutes) and sonicated. The sonicated liquid was centrifuged (4° C., 5000 rpm, 15 minutes) and then ultracentrifuged (4° C., 50, 000 rpm, 90 minutes) to prepare a microsome. The microsome thus obtained was used for measuring ACAT inhibitory activity of a test compound as mouse abdominal macrophage microsome ACAT.\n[Method for Measuring ACAT Inhibitory Activity]\nA mixture of a test compound, cholesterol-albumin-containing-Tris-HCL buffer (pH 7.5) and mouse abdominal macrophage microsome ACAT was pre-incubated at 37° C. for 10 minutes, and ^3H-oleyl-CoA was added to react at 37° C. for 20 minutes. A stopping solution composed of chloroform-methyl alcohol-distilled water (2:2:1 v/v) was added, and produced cholesteryl ester (CE) was extracted with shaking. The extract was subjected to silica gel thin chromatography (petroleum ether:diethyl ether:acetic acid=9:1:0.1 v/v), and the resulting ^3H-CE fraction was measured with a scintillation counter.\nACAT inhibiting rate was calculated from the proportion based on ACAT activity without a test compound, and an IC50 value was calculated as the concentration (μM) of a test compound showing ACAT inhibiting rate 50%. The results are shown in [Table 15]."}}}
{"compound": "O=C(Cc1c(-c2cccc(C(=O)O)c2)c2cc(CN3CCN(c4ccccc4)CC3)c(Cl)cc2oc1=O)Nc1ccc(Cl)cc1C(F)(F)F", "note": "[Example 113, 3-{7-chloro-3-(2-{[4-chloro-2-(trifluoromethyl)phenyl]amino}-2-oxoethyl)-2-oxo-6-[(4-phenylpiperazin-1-yl)methyl]-2H-chromen-4-yl}benzoic acid]", "values": [{"measurement": "IC50", "setting": "[1]", "result": 1220, "unit": "nM"}, {"measurement": "melting point", "result": "151 to 153", "unit": "°C"}]}
{"compound": "Cc1cc2c(-c3cccc(CCCC(=O)O)c3)c(CC(=O)Nc3ccc(F)cc3C(F)(F)F)c(=O)oc2cc1Cl", "note": "[Example 78]", "values": [{"measurement": "IC50", "setting": "[1]", "result": 430, "unit": "nM"}]}
{"compound": "O=C(O)/C=C/c1cccc(-c2c(CC(=O)Nc3ccc(F)cc3C(F)(F)F)c(=O)oc3cc(Cl)c(CN4CCN(c5ccccc5)CC4)cc23)c1", "note": "[Example 110, (2E)-3-(3-{7-chloro-3-(2-{[4-fluoro-2-(trifluoromethyl)phenyl]amino}-2-oxoethyl)-2-oxo-6-[(4-phenylpiperazin-1-yl)methyl]-2H-chromen-4-yl}phenyl)acrylic acid]", "values": [{"measurement": "IC50", "setting": "[1]", "result": 540, "unit": "nM"}, {"measurement": "melting point", "result": "238 to 240", "unit": "°C"}]}
{"compound": "O=C(Cc1c(-c2cccc(C(=O)O)c2)c2cc(CN3CCN(c4ccccc4)CC3)c(Cl)cc2oc1=O)Nc1ccc(F)cc1C(F)(F)F", "note": "[Example 112, 3-{7-chloro-3-(2-{[4-fluoro-2-(trifluoromethyl)phenyl]amino}-2-oxoethyl)-2-oxo-6-[(4-phenylpiperazin-1-yl)methyl]-2H-chromen-4-yl}benzoic acid]", "values": [{"measurement": "IC50", "setting": "[1]", "result": 540, "unit": "nM"}, {"measurement": "melting point", "result": "149 to 151", "unit": "°C"}]}
{"compound": "O=C(O)CCc1cccc(-c2c(CC(=O)Nc3ccc(Cl)cc3C(F)(F)F)c(=O)oc3cc(Cl)c(CN4CCN(c5ccccc5)CC4)cc23)c1", "note": "[Example 115]", "values": [{"measurement": "IC50", "setting": "[1]", "result": 420, "unit": "nM"}, {"measurement": "melting point", "result": "207 to 209", "unit": "°C"}]}
{"compound": "O=C(O)/C=C/c1cccc(-c2c(CC(=O)Nc3ccc(Cl)cc3C(F)(F)F)c(=O)oc3cc(Cl)c(CN4CCN(c5ccccc5)CC4)cc23)c1", "note": "[Example 111, (2E)-3-(3-{7-chloro-3-(2-{[4-chloro-2-(trifluoromethyl)phenyl]amino}-2-oxoethyl)-2-oxo-6-[(4-phenylpiperazin-1-yl)methyl]-2H-chromen-4-yl}phenyl)acrylic acid]", "values": [{"measurement": "IC50", "setting": "[1]", "result": 610, "unit": "nM"}, {"measurement": "melting point", "result": "239 to 241", "unit": "°C"}]}
{"compound": "CCOC(=O)CCc1cccc(-c2c(CC(=O)Nc3ccccc3C(F)(F)F)c(=O)oc3cc(Cl)c(C)cc23)c1", "note": "[Example 9, ethyl 3-[3-[7-chloro-6-methyl-3-[2-[[2-(trifluoromethyl)phenyl]amino]-2-oxoethyl]-2-oxo-2H-chromen-4-yl]phenyl]propionate]", "values": [{"measurement": "melting point", "result": "115 to 117", "unit": "°C"}]}
{"compound": "Cc1cc2c(-c3cccc(C(=O)NC(C)(C)C)c3)c(CC(=O)Nc3ccc(Cl)cc3C(F)(F)F)c(=O)oc2cc1Cl", "note": "[Example 122]", "values": [{"measurement": "melting point", "result": "206 to 208", "unit": "°C"}]}
{"compound": "CCOC(=O)/C=C/c1cccc(-c2c(CC(=O)Nc3ccc(F)cc3C(F)(F)F)c(=O)oc3cc(C)c(Cl)cc23)c1", "note": "[Example 5, ethyl (2E)-3-[3-[6-chloro-3-[2-[[4-fluoro-2-(trifluoromethyl)phenyl]amino]-2-oxoethyl]-7-methyl-2-oxo-2H-chromen-4-yl]phenyl]-2-propenoate]", "values": [{"measurement": "melting point", "result": "206 to 209", "unit": "°C"}]}
{"compound": "Cc1cc2c(-c3ccc(F)c(/C=C/C(=O)O)c3)c(CC(=O)Nc3ccc(Cl)cc3C(F)(F)F)c(=O)oc2cc1Cl", "note": "[Example 19, (2E)-3-[5-[7-chloro-3-[2-[[4-chloro-2-(trifluoromethyl)phenyl]amino]-2-oxoethyl]-6-methyl-2-oxo-2H-chromen-4-yl]-2-fluorophenyl]-2-propenoic acid]", "values": [{"measurement": "melting point", "result": "277 to 279", "unit": "°C"}]}
{"compound": "CCOC(=O)CCc1cccc(-c2c(CC(=O)Nc3ccc(F)cc3C(F)(F)F)c(=O)oc3ccccc23)c1", "note": "[Example 13, ethyl 3-[3-[3-[2-[[4-fluoro-2-(trifluoromethyl)phenyl]amino]-2-oxoethyl]-2-oxo-2H-chromen-4-yl]phenyl]propionate]", "values": [{"measurement": "melting point", "result": "163 to 164", "unit": "°C"}]}
{"compound": "Cc1cc2c(-c3cccc(Cc4noc(=O)[nH]4)c3)c(CC(=O)Nc3ccccc3C(F)(F)F)c(=O)oc2cc1Cl", "note": "[Example 101]", "values": [{"measurement": "melting point", "result": "295 °C (dec.)"}]}
{"compound": "Cc1cc2c(-c3cccc(CCC(=O)O)c3)c(CC(=O)Nc3ccc(F)cc3C(F)(F)F)c(=O)oc2cc1Cl", "note": "[Example 14, 3-[5-[7-chloro-3-[2-[[4-fluoro-2-(trifluoromethyl)phenyl]amino]-2-oxoethyl]-6-methyl-2-oxo-2H-chromen-4-yl]phenyl]propionic acid]", "values": [{"measurement": "melting point", "result": "212 to 214", "unit": "°C"}]}
{"compound": "Cc1cc2c(-c3cccc(CCC(=O)O)c3)c(CC(=O)Nc3ccccc3C(F)(F)F)c(=O)oc2cc1Cl", "note": "[Example 20, 3-[3-[7-chloro-6-methyl-2-oxo-3-(2-oxo-2-[[2-(trifluoromethyl)phenyl]amino]ethyl)-2H-chromen-4-yl]phenyl]propionic acid]", "values": [{"measurement": "melting point", "result": "150 °C (dec.)"}]}
{"compound": "O=C(O)CCc1cccc(-c2c(CC(=O)Nc3ccc(F)cc3C(F)(F)F)c(=O)oc3cc(Cl)c(CN4CCN(c5ccccc5)CC4)cc23)c1", "note": "[Example 114]", "values": [{"measurement": "IC50", "setting": "[1]", "result": 550, "unit": "nM"}, {"measurement": "melting point", "result": "226 to 228", "unit": "°C"}]}
